Experimental data: US4997950A, “Novel C-terminal gastrin antagonists” (priority 1989, dated 1991)
Entries after “also recorded” stand apart in the source; their conditions may differ. Counter-ions that a name gives are not always drawn. Non-standard residues stand in square brackets, D forms with d. Residues, ends and D or L forms follow the SMILES beside them. *: point of attachment. Boc = CC(C)(C)OC(=O)*; βAla = NCCC(=O)O

Key:
[1] = test system: pentagastrin stimulated acid secretion, rat stomach; test: acid secretion from the ligated rat stomach; type: in vivo, rat (Sprague-Dawley); details: for ACID SECRETION: basal 26.7 ± 3.21
Experimental: In brief fasted male Sprague-Dawley rats (200-250 g) were anaesthetised by the intravenous administration of Sagital (0.1 mg/100 g body weight). The abdominal cavity of each rat was exposed and the stomach was ligated at the pyloric and cardiac sphincters. The test solution (200 μl), containing either saline, pentagastrin (1 μg) or the synthetic peptide in conjunction with pentagastrin (1 μg), was applied directly to the exposed stomach surface, and left for 80 minutes. The stomach was then removed and the contents were washed out with distilled water (15 ml). The washings were titrated to neutrality by the addition of sodium hydroxide (10 mM).

[2] = test system: pentagastrin-stimulated acid secretion; test: inhibition of pentagastrin-stimulated acid secretion in dogs with gastric fistula and Heidenhain pouch; type: in vivo, dog (beagle); details: for order of decreasing antagonist activity: 20 pmol.kg^-1.h^-1; for effect on pentagastrin-stimulated acid secretion: 20 pmol.kg^-1.h^-1, gastric fistula and Heidenhain pouch; for ACID INHIBITION / percentage inhibition of acid: analogue 20 pmol.kg^-1.h^-1, period 110-170 minutes
Experimental: (§1) In brief, six beagle dogs were surgically prepared with Heidenhain pouches and gastric fistula. The dogs were fasted for 18 hours before the experiment. […] Collections of gastric secretions were recovered at 10 minute intervals. Each dog received an intravenous infusion throughout the experiment consisting of 150 mM NaCl and 8 mM KCl at 2 ml.min^-1. Secretory stimulants and the synthetic peptides were added to this infusion at appropriate rates. The stimulants of gastric secretion used were pentagastrin and histamine phosphate. Pentagastrin (0.5 μg.Kg^-1.h^-1) was given for 1 hour and then the synthetic peptide was added to the infusion and continued for another hour at a dose of 20 pmol.kg^-1 h^-1. The procedure was identical for histamine except that the dose of histamine was […]. The ten minute samples were titrated to pH 7.0 by the addition of sodium hydroxide (1 mM) and the acid secretion was expressed as μmol H^+ per 10 minutes.
The analogues depicted in Table 6.5 were tested as gastrin antagonists using dogs surgically prepared with gastric fistulae and Heidenhain pouches. The acid secretion was measured at 10 minute intervals during the administration of pentagastrin and each of the analogues.

pepsin secretion = test: inhibition of pepsin secretion in dogs with gastric fistula and Heidenhain pouch; type: in vivo, dog (beagle); details: for effect on pepsin secretion: gastric fistula
Experimental: as §1

[3] = test system: acid secretion, isolated perfused rat stomach; test: acid output from the isolated, perfused rat stomach, with or without gastrin-17; design: species or system rat (Wistar)
Experimental: In brief, stomachs from fasted male Wistar rats (240-270 g) were completely isolated and placed in organ baths filled with Krebs-Ringer buffer. The vascular bed was perfused at a rate of 2 ml.min^-1 with Krebs-Ringer buffer containing 5 mM glucose, 5 mM pyruvate, 40 mg.ml^-1 bovine serum albumin and 10% (v/v) fresh, washed ovine erythrocytes gassed with 96% O2, 4% CO2 by a membrane oxygenator. The gastric lumen was perfused with distilled water (pH 7.0) gassed with O2 (100%). All perfusates and the organ bath were kept at 37° C. After an initial "wash-out" period of 20 minutes, isobutylmethylxanthine (50 μM) was added to the vascular perfusate. After a further 20 minutes, the peptide to be tested was added, giving a final peptide concentration of 10^-9, 10^-7 or 10^-5 M. Five other stomachs were given 520 pM gastrin which was known to produce maximal acid secretion. Furthermore, each peptide was given together with gastrin (520 pM) to evaluate the gastrin inhibitory properties of the peptide. The acid output was determined by titration of the lumenal perfusate to neutrality with dodium hydroxide (1 mM).

[4] = test system: gastrin / pentagastrin-stimulated acid secretion; details: cited from earlier work

## CSCC[C@H](NC(=O)[C@H](Cc1c[nH]c2ccccc12)NC(=O)CCNC(=O)OC(C)(C)C)C(=O)N[C@@H](CC(=O)O)C(=O)N[C@@H](Cc1ccccc1)C(N)=O [PENTAGASTRIN, reference compound]
[1]; pentagastrin 13 nmol/kg alone
  ACID SECRETION: 60.6 ± 8.63 μmol/80 min

## CC(C)C[C@H](NC(=O)[C@H](Cc1c[nH]c2ccccc12)NC(=O)OC(C)(C)C)C(=O)NCCC(=O)O [Peptide I, t-Butyloxycarbonyl-L-Tryptophyl-L-Leucyl-β-Alanine] (Boc-Trp-Leu-[βAla]-OH)
[1]; peptide 8.2 nmol/kg + pentagastrin 13 nmol/kg
  ACID SECRETION: 22.7 ± 7.27 μmol/80 min
[1]; peptide I 8.2 nmol.Kg^-1 with pentagastrin, peptide XXII 80 or 4 pmol.Kg^-1
  effect on acid secretion, ligated stomach: potent antagonist of pentagastrin stimulated acid secretion; also recorded: reduced to a value similar to the basal level
[1]; peptide alone 8.2 nmol/kg
  ACID SECRETION: 28.6 ± 4.21 μmol/80 min
[2]
  order of decreasing antagonist activity: I>III>XIV>XV>II
[2]; listed as Boc-Trp-Leu-β-Ala
  effect on pentagastrin-stimulated acid secretion: retaining potent antagonistic properties
[2]; listed as Boc-Trp-leu-β-Ala
  effect on pentagastrin-stimulated acid secretion: most potent antagonist of the series
[2]; GF (gastric fistula)
  ACID INHIBITION: 617.58 mmol H^+ /kg
  percentage inhibition of acid: 60%
[2]; HP (Heidenhain pouch)
  ACID INHIBITION: 35.70 mmol H^+ /kg
  percentage inhibition of acid: 55.8%
Pepsin secretion; GF (gastric fistula)
  Inhibition of Pepsin Secretion: 67.3 Units/kg
  percentage inhibition of pepsin secretion: 59.2%
Pepsin secretion; HP (Heidenhain pouch)
  Inhibition of Pepsin Secretion: 1.65 Units/kg
Pepsin secretion
  effect on pepsin secretion: significant decrease in pepsin secretion from the gastric fistula

## CC(C)C[C@H](NC(=O)[C@H](Cc1c[nH]c2ccccc12)NC(=O)CN1CC[C@H](NC(=O)[C@H](C)NC(=O)OC(C)(C)C)C1=O)C(=O)N[C@@H](CC(=O)O)C(=O)N[C@@H](Cc1ccccc1)C(N)=O [Peptide XXII, t-Butyloxycarbonyl-L-Alanyl-amino-2-oxo-1-pyrrolidineacetyl-L-Tryptophyl-L-Leucyl-L-Aspartyl-L-Phenylalanyl amide]
[1]; deduced from γ-lactam peptide acid secretion
  increase of affinity for the gastrin receptor as compared to pentagastrin: approximately 120 fold

## CC(C)C[C@@H](C(=O)NCCC(=O)O)N(C)C(=O)CCc1ccccc1 [Peptide XIV, Phenyl-3-propionyl-N-methyl-L-Leucyl-β-Alanine]
[2]
  order of decreasing antagonist activity: I>III>XIV>XV>II
  effect on pentagastrin-stimulated acid secretion: antagonists with significant activity
[2]; GF (gastric fistula)
  ACID INHIBITION: 256.77 mmol H^+ /kg
  percentage inhibition of acid: 25%

## CC(C)C[C@H](NC(=O)[C@@H](N)Cc1c[nH]c2ccccc12)C(=O)CN[C@@H](CC(=O)O)C(=O)N[C@@H](Cc1ccccc1)C(N)=O [Peptide XXI, L-Tryptophyl-L-Leucyl-.psi.(COCH2 NH)-L-Aspartyl-L-Phenylalanyl amide dihydrochloride]
[3]; 10^-9 to 10^-5 M, absence or presence of gastrin-17 520 pM, dihydrochloride
  effect on acid secretion, isolated perfused stomach: At low concentrations it inhibits basal acid secretion; also recorded: when administered at 10^-5 M or in conjunction with gastrin-17, it acts as a weak agonist; also recorded: partial agonist
[3]; peptide 10^-5 M + G-17 (520 pM), gastrin alone 58.7
  Acid output: 68.5 μmol H^+ /60 min
[3]; peptide 10^-5 M, basal 8.7
  Acid output: 22.4 μmol H^+ /60 min
[3]; peptide 10^-7 M, basal 8.7
  Acid output: 1.6 μmol H^+ /60 min
[3]; peptide 10^-9 M, basal 8.7
  Acid output: 2.2 μmol H^+ /60 min

## CSCCC(NC(=O)C(Cc1c[nH]c2ccccc12)NC(=O)CNC(=O)C(Cc1ccc(O)cc1)NC(=O)C(C)NC(=O)C(CCC(=O)O)NC(=O)C(CCC(=O)O)NC(=O)C(CCC(=O)O)NC(=O)[C@H](CCC(=O)O)NC(=O)[C@H](CCC(=O)O)NC(=O)[C@H](CC(C)C)NC(=O)[C@H](Cc1c[nH]c2ccccc12)NC(=O)[C@@H]1CCCN1C(=O)CNC(=O)[C@@H](N)CCC(=O)O)C(=O)NC(CC(=O)O)C(=O)NC(Cc1ccccc1)C(N)=O (stereo in doubt) [GASTRIN]
[3]; gastrin 520 pM alone, basal 8.7
  Acid output: 58.7 μmol H^+ /60 min

## CC(C)C[C@H](NC(=O)CCc1ccccc1)C(=O)NCCC(=O)O [Peptide II, Phenyl-3-Propionyl-Leucyl-β-Alanine]
[2]
  order of decreasing antagonist activity: I>III>XIV>XV>II
  effect on pentagastrin-stimulated acid secretion: gastrin antagonists although they are less potent than the parent peptide
[2]; GF (gastric fistula)
  ACID INHIBITION: 562.22 mmol H^+ /kg
  percentage inhibition of acid: 54.7%
[2]; HP (Heidenhain pouch)
  ACID INHIBITION: 32.59 mmol H^+ /kg
  percentage inhibition of acid: 50.92%

## CC(C)C[C@H](NC(=O)[C@H](Cc1c[nH]c2ccccc12)NC(=O)OC(C)(C)C)C(=O)N[C@@H](CC(=O)O)C(N)=O [N-tBOC-Trp-Leu-Asp-NH2] (Boc-Trp-Leu-Asp-NH2)
[4]
  antagonist activity: shortest sequence still retaining antagonist activity
  concentration at which antagonist properties are exhibited: 100 µM
[4]; joint infusion of peptide (40 μg/kg) and pentagastrin (0.5 μg/kg)
  reduction of acid secretion: 50%

## CC(C)C[C@H](NC(=O)CCc1ccccc1)C(=O)N(C)CCC(=O)O [Peptide XV, Phenyl-3-propionyl-L-Leucyl-N-Methyl-β-Alanine]
[2]
  order of decreasing antagonist activity: I>III>XIV>XV>II
  effect on pentagastrin-stimulated acid secretion: antagonists with significant activity
[2]; GF (gastric fistula)
  ACID INHIBITION: 185.32 mmol H^+ /kg
  percentage inhibition of acid: 18%

## CC(C)C[C@H](NC(=O)CCc1c[nH]c2ccccc12)C(=O)NCCC(=O)O [Peptide III, Indole-3-Propionyl-L-Leucyl-β-Alanine]
[2]
  order of decreasing antagonist activity: I>III>XIV>XV>II
  effect on pentagastrin-stimulated acid secretion: gastrin antagonists although they are less potent than the parent peptide
[2]; GF (gastric fistula)
  ACID INHIBITION: 125.51 mmol H^+ /kg
  percentage inhibition of acid: 12.2%
Pepsin secretion; GF (gastric fistula)
  Inhibition of Pepsin Secretion: 71.1 Units/kg
  percentage inhibition of pepsin secretion: 62.5%
Pepsin secretion; HP (Heidenhain pouch)
  Inhibition of Pepsin Secretion: 5.78 Units/kg
Pepsin secretion
  effect on pepsin secretion: significant decrease in pepsin secretion from the gastric fistula

## CC(C)C[C@H](NC(=O)CCc1c[nH]c2ccccc12)C(=O)N[C@@H](CC(=O)O)C(=O)NCCc1ccccc1 [Peptide V, Indole-3-Propionyl-L-Leucyl-L-Aspartyl-Phenethylamide]
[2]; GF (gastric fistula)
  ACID INHIBITION: 303.25 mmol H^+ /kg
  percentage inhibition of acid: 29.5%
[2]; HP (Heidenhain pouch)
  ACID INHIBITION: 11.00 mmol H^+ /kg
  percentage inhibition of acid: 17.2%
Pepsin secretion; GF (gastric fistula)
  Inhibition of Pepsin Secretion: -3.1 Units/kg
  percentage inhibition of pepsin secretion: 0%
Pepsin secretion; HP (Heidenhain pouch)
  Inhibition of Pepsin Secretion: 2.04 Units/kg
